Measurements as given in patent publication US20250268876A1, “TREATMENT OF HIDRADENITIS SUPPURATIVA WITH ORISMILAST” (UNION THERAPEUTICS A/S, priority 2021, published 2025).

Columns and labels:
PDE4B1 = PDE4B1 (Homo sapiens, UniProt Q07343); format: biochemical
Procedure: (§1) Enzyme Preparations: Partially purified human recombinant phosphodiesterases (PDEs) were obtained by cloning cDNA and expressing in S. frugiperda insect cells using a baculovirus expression system. Cells are harvested from culture by centrifuging at 400×g for 5 minutes. Cell pellet is resuspended in 20 ml of RIPA Buffer (150 mM NaCl, 10 mM Tris, 0.1% NP-40, pH8.3), 4 ml/200 ml of culture, plus protease inhibitors (100 μl/10 ml) and incubated on ice for 10-20 minutes then spun at 3500×g for 10 minutes at 4° C. Supernatant is kept and the pellet thrown away.
(§2) Tritium-labelled cyclic AMP is hydrolysed to 5′-AMP o by PDE. The 5′-AMP is then further hydrolysed to adenosine by nucleotidase in snake venom. An anion-exchange resin binds all charged nucleotides and leaves [^3H]adenosine as the only labelled compound to be counted by liquid scintillation.
(§3) 50 μl of diluted PDE enzyme was incubated with 50 μl of [^3H]-cAMP (specific activity 25 Ci/mmol) and 11 μl of 50% DMSO (or compound dilution) for 20 minutes at 30° C. The enzyme was diluted in 20 mM Tris HCl pH7.4 (×2.2 final concentration) and [3H]-cAMP was diluted in 10 mM MgCl2, 40 mM Tris HCl pH 7.4 (×2.2 final concentration). Reactions were carried out in Greiner 96 deep well 1 ml master-block. The plates were centrifuged for 9 seconds before the 20 minutes incubation. […] After incubation 200 μl Dowex resin (1×8, 200-400 mesh) was added and the plate shaken for 20 minutes then centrifuged for 3 minutes at 1000×g. 50 μl of supernatant was removed and added to 200 μl of MicroScint-20 in white plates (Greiner 96well Optiplate) and shaken for 30 minutes before reading on Perkin Elmer TopCount Scintillation Counter. IC50 values were calculated using GraphPad Prism software (version 8).

PDE4B3 = PDE4B3 (Homo sapiens, UniProt Q07343); format: biochemical
PDE4B3, sequence (Q07343 1-721 isoform Q07343-3): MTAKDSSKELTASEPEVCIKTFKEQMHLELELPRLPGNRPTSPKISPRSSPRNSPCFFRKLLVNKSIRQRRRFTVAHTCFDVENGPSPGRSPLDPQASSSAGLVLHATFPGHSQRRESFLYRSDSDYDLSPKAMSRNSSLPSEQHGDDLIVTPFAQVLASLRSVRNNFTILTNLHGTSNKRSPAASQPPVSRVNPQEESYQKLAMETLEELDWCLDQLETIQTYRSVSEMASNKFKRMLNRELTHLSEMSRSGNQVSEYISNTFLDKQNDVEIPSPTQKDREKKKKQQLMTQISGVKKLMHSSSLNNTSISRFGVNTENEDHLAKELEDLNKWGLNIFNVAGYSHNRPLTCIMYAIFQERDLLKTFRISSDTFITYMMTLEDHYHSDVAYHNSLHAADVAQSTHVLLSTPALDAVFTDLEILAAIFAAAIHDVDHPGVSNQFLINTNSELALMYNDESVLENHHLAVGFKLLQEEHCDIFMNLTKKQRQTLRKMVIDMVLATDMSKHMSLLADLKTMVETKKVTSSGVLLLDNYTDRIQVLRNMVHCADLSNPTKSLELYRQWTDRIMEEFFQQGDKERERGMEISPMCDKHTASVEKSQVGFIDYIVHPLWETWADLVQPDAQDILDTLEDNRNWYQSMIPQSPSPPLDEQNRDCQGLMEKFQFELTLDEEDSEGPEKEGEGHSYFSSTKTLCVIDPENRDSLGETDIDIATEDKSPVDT
Procedure: as §1, §2, §3

[1] = system: Hidradenitis suppurativa (HS); assay: Phase 2a open-label trial of orismilast in HS patients; format: in vivo, human; settings: for IHS4: Baseline 65; for VAS pain: Baseline 9; for DLQI: Baseline 25; for HiSQOL: Baseline 54
Description: The following clinical trial may be performed using the compound of formula (I). Suitably the compound of formula (I) is orally administered to a subject in the form of a modified release composition, for example a modified release formulation described in WO 2020/148271, or as a composition described in Example 1 above. […] This is a phase 2, single-centre, prospective, open-label, single-arm, exploratory clinical trial assessing the efficacy and safety of orismilast in patients with mild, moderate, or severe HS as defined by the IHS4 scores: […] Eligible patients will receive treatment with orismilast tablets twice daily for 16 weeks. The treatment dose will be according to a predefined titration scheme and adapted to the observed tolerance of each patient. Treatment phase: […] Telephone consultation], and Week 2 [Visit 4]) (“BID” means bis in die, i.e. twice per day). Assessment of treatment efficacy will be undertaken using: • 1. Investigator assessments: • a. Counts of abscess, inflammatory nodule, and draining fistula at each on site visit day. • b. International Hidradenitis Suppurativa Severity Score System (IHS4) at each on site visit day. • c. Physician's Global Assessment of disease severity (HS-PGA) at each on site visit day. • 2. Patient assessments • a. Patients' Global Assessment of disease severity at Screening, Baseline, Week 2 (Visit 4), Week 8 (Visit 6), Week 12 (Visit 7), Week 16 (EoT, Visit 8), FU (Visit 9), and EoS (Visit 10). • b. Completion of questionnaires covering skin related quality of life DLQI at Screening, Baseline, Week 2 (Visit 4), Week 8 (Visit 6), Week 12 (Visit 7), Week 16 (EoT), FU, and EoS. • c. Completion of questionnaires covering HS specific quality of life (HiSQOL) at Screening, Baseline, Week 2 (Visit 4), Week 8 (Visit 6), Week 12 (Visit 7), Week 16 (EoT), FU, and EoS. • d. Completion of questionnaire covering skin pain (Patient's Global Assessment of Skin Pain) at each visit day. • e. Completion of questionnaire covering impact on work productivity (WPAI), anxiety and depression (HADS), fatigue (MFI-20), quality of life (EQ-5D), and McGill Pain questionnaire at Baseline, Week 16 (EoT), and EoS. • Counts of abscess, inflammatory nodule, and draining fistula. The lesions are defined in a Pan-European consensus paper ([…] et al., Dermatology. 2020; 236(5):431-438). […] An abscess is defined as a palpable lesion, with liquid content (pus), fluctuant, soft on palpation, diameter >10 mm, usually deep seated; acute, very painful phenomenon. […] A treatment target based on correlation between the changes in lesion counts and PROM (pain and HRQoL). Hidradenitis Suppurativa Clinical Response (HiSCR; a […] reduction from baseline in abscess and inflammatory nodule count and no increase in abscess or draining fistula counts) (Kimball et al., Ann Intern Med. 2012 Dec. 18; 157(12):846-55; Kimball et al., J Eur Acad Dermatol Venereol. 2016 June; 30(6):989-94). Subsequently modified for further differentiation: HiSCR75; a ≥75% reduction from baseline in abscess and inflammatory nodule count and no increase in abscess or draining fistula counts) and HiSCR-90; a ≥90% reduction from baseline in abscess and inflammatory nodule count and no increase in abscess or draining fistula counts) • International Hidradenitis Suppurativa Severity Score System (IHS4): […] The score is based on a count of inflamed lesions. The resulting IHS4 score is arrived at by the number of nodules (multiplied by 1) plus the number of abscesses (multiplied by 2) plus the number of draining tunnels (multiplied by 4). […] The six-point hidradenitis suppurativa Physician Global Assessment (PGA) ranges from clear to very severe (Kimball et al., Ann Intern Med. 2012 Dec. 18; 157(12):846-55). It is used in clinical trials to measure clinical improvement in inflammatory nodules, abscesses, and draining fistulae. The six stages are; • Clear: No inflammatory or non-inflammatory nodules. • Minimal: Only the presence of non-inflammatory nodules. • Mild: […]

PDE4A4 = PDE4A4 (Homo sapiens, UniProt P27815); assay: biochemical
PDE4A4, sequence (P27815 whole entry): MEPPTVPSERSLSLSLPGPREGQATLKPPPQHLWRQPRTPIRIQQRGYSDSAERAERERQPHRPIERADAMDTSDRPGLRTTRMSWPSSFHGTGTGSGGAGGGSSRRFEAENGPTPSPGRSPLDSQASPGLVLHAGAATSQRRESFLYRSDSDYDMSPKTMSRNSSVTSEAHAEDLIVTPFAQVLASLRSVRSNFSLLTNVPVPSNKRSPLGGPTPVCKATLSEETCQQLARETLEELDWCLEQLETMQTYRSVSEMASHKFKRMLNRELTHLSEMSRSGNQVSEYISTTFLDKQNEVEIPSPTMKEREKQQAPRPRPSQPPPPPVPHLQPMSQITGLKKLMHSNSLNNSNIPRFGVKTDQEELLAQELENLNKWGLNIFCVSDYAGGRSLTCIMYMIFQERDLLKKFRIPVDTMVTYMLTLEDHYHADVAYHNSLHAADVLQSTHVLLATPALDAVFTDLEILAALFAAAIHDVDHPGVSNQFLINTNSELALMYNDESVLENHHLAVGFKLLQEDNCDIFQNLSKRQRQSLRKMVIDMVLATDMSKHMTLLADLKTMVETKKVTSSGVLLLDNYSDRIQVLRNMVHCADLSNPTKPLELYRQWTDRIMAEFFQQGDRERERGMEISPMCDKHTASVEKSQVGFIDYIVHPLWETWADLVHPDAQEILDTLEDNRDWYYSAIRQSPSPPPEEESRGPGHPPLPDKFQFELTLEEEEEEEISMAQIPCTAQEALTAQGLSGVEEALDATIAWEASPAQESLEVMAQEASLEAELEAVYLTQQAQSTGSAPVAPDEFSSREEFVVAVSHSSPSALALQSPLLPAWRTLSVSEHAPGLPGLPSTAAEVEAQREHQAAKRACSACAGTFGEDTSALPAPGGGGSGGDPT

PDE4B1, sequence (Q07343 whole entry): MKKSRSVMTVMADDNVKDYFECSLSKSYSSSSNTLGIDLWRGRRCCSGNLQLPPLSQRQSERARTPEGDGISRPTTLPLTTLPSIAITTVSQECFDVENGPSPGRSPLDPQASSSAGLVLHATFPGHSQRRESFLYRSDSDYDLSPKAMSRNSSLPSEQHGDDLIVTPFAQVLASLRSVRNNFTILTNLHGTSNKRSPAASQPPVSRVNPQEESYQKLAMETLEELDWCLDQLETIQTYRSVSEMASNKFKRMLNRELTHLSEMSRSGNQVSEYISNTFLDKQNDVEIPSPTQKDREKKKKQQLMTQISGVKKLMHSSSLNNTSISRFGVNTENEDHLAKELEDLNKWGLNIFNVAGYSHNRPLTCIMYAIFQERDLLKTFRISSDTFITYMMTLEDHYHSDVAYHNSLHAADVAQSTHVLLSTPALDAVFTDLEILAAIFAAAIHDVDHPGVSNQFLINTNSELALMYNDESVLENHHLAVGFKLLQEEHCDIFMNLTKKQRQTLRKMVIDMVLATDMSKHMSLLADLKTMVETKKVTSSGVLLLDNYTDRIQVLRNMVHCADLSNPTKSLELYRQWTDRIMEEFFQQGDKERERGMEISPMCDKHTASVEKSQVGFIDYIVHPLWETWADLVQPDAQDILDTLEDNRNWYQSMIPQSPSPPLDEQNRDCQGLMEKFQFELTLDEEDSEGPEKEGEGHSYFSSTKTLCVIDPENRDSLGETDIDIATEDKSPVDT

What does the source list for `O=C(Cc1c(Cl)c[n+]([O-])cc1Cl)c1ccc(OC(F)F)c2c1OC1(CCS(=O)(=O)CC1)O2` [Compound (I), 2-(3,5-Dichloro-1-oxido-pyridine-4-yl)-1-(7-difluoro-methoxy-2′,3′,5′,6′-tetrahydro-spiro[1,3-benzodioxole-2,4′-(4H)-thiopyran-1′,1′-dioxide]-4-yl)ethanone]?
IC50 (PDE4B1): 16 nM; IC50 (PDE4B3): 3 nM; clinical response (in words) ([1]; first four HS patients enrolled, trial ongoing): initial signs of improvement in HS; clinical response (in words) ([1]; one patient refractory to conventional HS therapies): immediate clinical improvement with reduction of tissue edema and pain, as well as increased mobility; IHS4 ([1]; one patient, severe HS, Day 14, 10 to 30 mg twice daily): 61; VAS pain ([1]; one patient, Day 14): 7; DLQI ([1]; one patient, Day 14): 23; HiSQOL ([1]; one patient, Day 14): 42; VAS pain ([1]; one patient, Day 57): 6; DLQI ([1]; one patient, Day 57): 22; HiSQOL ([1]; one patient, Day 57): 46; IHS4 ([1]; one patient, Day 57, 30 mg twice daily): 62; thrombocytes ([1]; one patient, at day 14, baseline 402): 365; patient's global assessment ([1]; one patient, day 15): very severe; patient's global assessment ([1]; one patient, day 57): severe; leukocytes ([1]; one patient, day 57, baseline 14.0): 11.5; C-reactive protein ([1]; one patient, day 57, baseline 89): 84; erythrocyte sedimentation rate ([1]; one patient, day 57, baseline 94): 88; physician's global assessment of disease activity ([1]; one patient, during treatment to day 57): very severe; IC50 (PDE4A4): 11 nM
